Patent US11970474B2, “Substituted benzodiazoles and use thereof in therapy” (THOMAS HELLEDAYS STIFTELSE FÖR MEDICINSK FORSKNING, priority 2018, dated 2024)

molecular target: OGG1 (Homo sapiens (Human), UniProt O15527); assay: In vitro OGG1 activity assay; assay type: biochemical; conditions: 800 pM OGG1 enzyme, 2 nM human APEX1, 10 nM 8-oxoA:C substrate
Experimental: Method 1: In Vitro OGG1 Activity Assay OGG1 activity is assayed by measuring the increase in fluorescence from a duplex oligonucleotide containing an OGG1 substrate and a fluorophore in close proximity that are quenched by a quencher on the complementary strand. […] OGG1 activity releases the substrate base from DNA by cleaving the N-glycosidic bond between base and deoxyribose. The resulting apurinic site is cleaved by an excessive amount APEX1 activity which cause the duplex to melt, which in turn cause the fluorophore to become unquenched. Compounds to be tested are dissolved in DMSO and nano-dispensed directly into black 384-well plates, followed by transfer of enzyme and substrate solutions. […] The fluorescent signal is recorded in a plate reader equipped with suitable filters to register fluorescein fluorescence.

OGG1, sequence (O15527 whole entry): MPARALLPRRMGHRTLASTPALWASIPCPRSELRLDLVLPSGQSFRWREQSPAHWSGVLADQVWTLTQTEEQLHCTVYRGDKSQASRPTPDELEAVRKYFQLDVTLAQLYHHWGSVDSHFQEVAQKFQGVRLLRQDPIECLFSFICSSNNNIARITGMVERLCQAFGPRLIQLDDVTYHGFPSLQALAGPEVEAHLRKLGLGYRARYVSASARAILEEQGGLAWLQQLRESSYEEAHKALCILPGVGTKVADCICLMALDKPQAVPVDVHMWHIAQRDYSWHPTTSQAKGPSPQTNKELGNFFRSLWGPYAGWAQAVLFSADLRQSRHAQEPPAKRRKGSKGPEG

| IC50 | SMILES |
| --- | --- |
| 175 nM | COc1ccc(NC(=O)[C@H]2CC[C@@H](n3c(=O)[nH]c4c(Br)cccc43)CC2)cc1C#N [Example 161, (Cis)-4-(4-bromo-2-oxo-2,3-dihydro-1H-1,3-benzodiazol-1-yl)-N-(3-cyano-4-methoxyphenyl)cyclohexane-1-carboxamide] |
| 1290 nM | O=c1[nH]c2c(Br)cccc2n1[C@H]1CC[C@@H](C(=O)Nc2ccc(F)c(Cl)c2)CC1 [Example 162, (Cis)-4-(4-bromo-2-oxo-2,3-dihydro-1H-1,3-benzodiazol-1-yl)-N-(3-chloro-4-fluorophenyl)cyclohexane-1-carboxamide] |
| 3160 nM | COc1cc(Cl)cc(NC(=O)[C@H]2CC[C@@H](n3c(=O)[nH]c4c(Br)cccc43)CC2)c1 [Example 163, (Cis)-4-(4-bromo-2-oxo-2,3-dihydro-1H-1,3-benzodiazol-1-yl)-N-(3-chloro-5-methoxyphenyl)cyclohexane-1-carboxamide] |
| 1390 nM | COc1cccc(NC(=O)[C@H]2CC[C@@H](n3c(=O)[nH]c4c(Br)cccc43)CC2)c1 [Example 165, (Cis)-4-(4-bromo-2-oxo-2,3-dihydro-1H-1,3-benzodiazol-1-yl)-N-(3-methoxyphenyl)cyclohexane-1-carboxamide] |
| 3890 nM | Cc1cccc(NC(=O)[C@H]2CC[C@@H](n3c(=O)[nH]c4c(Br)cccc43)CC2)c1C [Example 167, (Cis)-4-(4-bromo-2-oxo-2,3-dihydro-1H-1,3-benzodiazol-1-yl)-N-(2,3-dimethylphenyl)cyclohexane-1-carboxamide] |
| 9090 nM | Cc1cc(NC(=O)[C@H]2CC[C@@H](n3c(=O)[nH]c4c(Br)cccc43)CC2)no1 [Example 169, (Cis)-4-(4-bromo-2-oxo-2,3-dihydro-1H-1,3-benzodiazol-1-yl)-N-(5-methyl-1,2-oxazol-3-yl)cyclohexane-1-carboxamide] |
| 8800 nM | Cn1cc(NC(=O)[C@H]2CC[C@@H](n3c(=O)[nH]c4c(Br)cccc43)CC2)cn1 [Example 170, (Cis)-4-(4-bromo-2-oxo-2,3-dihydro-1H-1,3-benzodiazol-1-yl)-N-(1-methyl-1H-pyrazol-4-yl)cyclohexane-1-carboxamide] |
| 7790 nM | COc1ccc2c(c1)[nH]c(=O)n2C1CCN(C(=O)Nc2ccc(OC)c(Cl)c2)CC1 [Example 172, N-(3-Chloro-4-methoxyphenyl)-4-(5-methoxy-2-oxo-2,3-dihydro-1H-1,3-benzodiazol-1-yl)piperidine-1-carboxamide] |
| 2420 nM | COc1ccc(NC(=O)N2CCC(n3c(=O)[nH]c4cc(F)ccc43)CC2)cc1Cl [Example 173, N-(3-Chloro-4-methoxyphenyl)-4-(5-fluoro-2-oxo-2,3-dihydro-1H-1,3-benzodiazol-1-yl)piperidine-1-carboxamide] |
| 2540 nM | COc1ccc(NC(=O)N2CCC(n3c(=O)[nH]c4c(N)cccc43)CC2)cc1Cl [Example 174, 4-(4-Amino-2-oxo-2,3-dihydro-1H-1,3-benzodiazol-1-yl)-N-(3-chloro-4-methoxyphenyl)piperidine-1-carboxamide] |
| 2620 nM | CCCNc1cccc2c1[nH]c(=O)n2C1CCN(C(=O)Nc2ccc(OC)c(Cl)c2)CC1 [Example 175, N-(3-Chloro-4-methoxyphenyl)-4-[2-oxo-4-(propylamino)-2,3-dihydro-1H-1,3-benzodiazol-1-yl]piperidine-1-carboxamide] |
| 1080 nM | COc1ccc(NC(=O)N2CCC(n3c(=O)[nH]c4c(SC)cccc43)CC2)cc1Cl [Example 176, N-(3-Chloro-4-methoxyphenyl)-4-[4-(methylsulfanyl)-2-oxo-2,3-dihydro-1H-1,3-benzodiazol-1-yl]piperidine-1-carboxamide] |
| 5020 nM | COc1ccc(NC(=O)N2CCC(n3c(=O)[nH]c4c(Br)cccc43)C(O)C2)cc1Cl (centres unmarked) [Example 177, 4-(4-Bromo-2-oxo-2,3-dihydro-1H-1,3-benzodiazol-1-yl)-N-(3-chloro-4-methoxyphenyl)-3-hydroxypiperidine-1-carboxamide] |
| 6920 nM | COc1ccc(NC(=O)N2CCC(n3c(=O)[nH]c4cc(C#N)ccc43)CC2)cc1Cl [Example 178, N-(3-Chloro-4-methoxyphenyl)-4-(5-cyano-2-oxo-2,3-dihydro-1H-1,3-benzodiazol-1-yl)piperidine-1-carboxamide] |
| 1570 nM | COc1ccc(NC(=O)N2CCC(n3c(=O)[nH]c4cc(C)ccc43)CC2)cc1Cl [Example 179, N-(3-Chloro-4-methoxyphenyl)-4-(5-methyl-2-oxo-2,3-dihydro-1H-1,3-benzodiazol-1-yl)piperidine-1-carboxamide] |
| 8890 nM | COc1ccc(NC(=O)N2CCC(n3c(=O)[nH]c4c(C)ccnc43)CC2)cc1Cl [Example 180, N-(3-Chloro-4-methoxyphenyl)-4-{7-methyl-2-oxo-1H,2H,3H-imidazo[4,5-b]pyridin-3-yl}piperidine-1-carboxamide] |

| IC50 | SMILES |
| --- | --- |
| 7090 nM | COc1ccc(NC(=O)N2CCC(n3c(=O)[nH]c4cc(C)cnc43)CC2)cc1Cl [Example 181, N-(3-Chloro-4-methoxyphenyl)-4-{6-methyl-2-oxo-1H,2H,3H-imidazo[4,5-b]pyridin-3-yl}piperidine-1-carboxamide] |
| 4790 nM | COc1ccc(NC(=O)N2CCC(n3c(=O)[nH]c4c(F)cccc43)CC2)cc1Cl [Example 182, N-(3-Chloro-4-methoxyphenyl)-4-(4-fluoro-2-oxo-2,3-dihydro-1H-1,3-benzodiazol-1-yl)piperidine-1-carboxamide] |
| 1390 nM | O=c1[nH]c2c(Br)cccc2n1[C@H]1CC[C@@H](C(=O)Nc2cnc(Cl)c(Cl)c2)CC1 [Example 185, Cis-4-(4-bromo-2-oxo-2,3-dihydro-1H-1,3-benzodiazol-1-yl)-N-(5,6-dichloropyridin-3-yl)cyclohexane-1-carboxamide] |
| 2030 nM | O=c1[nH]c2c(Br)cccc2n1[C@H]1CC[C@@H](C(=O)Nc2cccc3cn[nH]c23)CC1 [Example 186, Cis-4-(4-bromo-2-oxo-2,3-dihydro-1H-1,3-benzodiazol-1-yl)-N-(1H-indazol-7-yl)cyclohexane-1-carboxamide] |
| 4630 nM | O=c1[nH]c2c(Br)cccc2n1[C@H]1CC[C@@H](C(=O)Nc2cncc(Cl)c2)CC1 [Example 188, Cis-4-(4-bromo-2-oxo-2,3-dihydro-1H-1,3-benzodiazol-1-yl)-N-(5-chloropyridin-3-yl)cyclohexane-1-carboxamide] |
| 1760 nM | Cc1ccc(NC(=O)[C@H]2CC[C@@H](n3c(=O)[nH]c4c(Br)cccc43)CC2)nc1 [Example 189, Cis-4-(4-bromo-2-oxo-2,3-dihydro-1H-1,3-benzodiazol-1-yl)-N-(5-methylpyridin-2-yl)cyclohexane-1-carboxamide] |
| 467 nM | Cc1ccc(NC(=O)[C@H]2CC[C@@H](n3c(=O)[nH]c4c(Br)cccc43)CC2)cn1 [Example 190, Cis-4-(4-bromo-2-oxo-2,3-dihydro-1H-1,3-benzodiazol-1-yl)-N-(6-methylpyridin-3-yl)cyclohexane-1-carboxamide] |
| 1380 nM | COc1cc(NC(=O)[C@H]2CC[C@@H](n3c(=O)[nH]c4c(Br)cccc43)CC2)cc(OC)c1OC [Example 193, Cis-4-(4-bromo-2-oxo-2,3-dihydro-1H-1,3-benzodiazol-1-yl)-N-(3,4,5-trimethoxyphenyl)cyclohexane-1-carboxamide] |
| 3560 nM | Nc1cccc(NC(=O)[C@H]2CC[C@@H](n3c(=O)[nH]c4c(Br)cccc43)CC2)c1 [Example 195, Cis-N-(3-aminophenyl)-4-(4-bromo-2-oxo-2,3-dihydro-1H-1,3-benzodiazol-1-yl)cyclohexane-1-carboxamide] |
| 647 nM | O=c1[nH]c2c(Br)cccc2n1[C@H]1CC[C@@H](C(=O)Nc2cccc(O)c2)CC1 [Example 196, Cis-4-(4-bromo-2-oxo-2,3-dihydro-1H-1,3-benzodiazol-1-yl)-N-(3-hydroxyphenyl)cyclohexane-1-carboxamide] |
| 5370 nM | CN(C)c1cccc(NC(=O)[C@H]2CC[C@@H](n3c(=O)[nH]c4c(Br)cccc43)CC2)c1 [Example 198, Cis-4-(4-bromo-2-oxo-2,3-dihydro-1H-1,3-benzodiazol-1-yl)-N-[3-(dimethylamino)phenyl]cyclohexane-1-carboxamide] |
| 631 nM | CN(C)c1ccc(NC(=O)[C@H]2CC[C@@H](n3c(=O)[nH]c4c(Br)cccc43)CC2)cc1 [Example 200, Cis-4-(4-bromo-2-oxo-2,3-dihydro-1H-1,3-benzodiazol-1-yl)-N-[4-(dimethylamino)phenyl]cyclohexane-1-carboxamide] |
| 6270 nM | Cc1nc2ccc(NC(=O)[C@H]3CC[C@@H](n4c(=O)[nH]c5c(Br)cccc54)CC3)cc2o1 [Example 203, Cis-4-(4-bromo-2-oxo-2,3-dihydro-1H-1,3-benzodiazol-1-yl)-N-(2-methyl-1,3-benzoxazol-6-yl)cyclohexane-1-carboxamide] |
| 74.5 nM | COc1ccc(NC(=O)[C@H]2CC[C@@H](n3c(=O)[nH]c4c(OC)cccc43)CC2)cc1 [Example 205, Cis-4-(4-methoxy-2-oxo-2,3-dihydro-1H-1,3-benzodiazol-1-yl)-N-(4-methoxyphenyl)cyclohexane-1-carboxamide] |
| 73.6 nM | COc1ccc(NC(=O)[C@H]2CC[C@@H](n3c(=O)[nH]c4c(OC)cccc43)CC2)cc1F [Example 207, Cis-N-(3-fluoro-4-methoxyphenyl)-4-(4-methoxy-2-oxo-2,3-dihydro-1H-1,3-benzodiazol-1-yl)cyclohexane-1-carboxamide] |
| 115 nM | COc1ncc(NC(=O)[C@H]2CC[C@@H](n3c(=O)[nH]c4c(OC)cccc43)CC2)cc1C [Example 208, Cis-4-(4-methoxy-2-oxo-2,3-dihydro-1H-1,3-benzodiazol-1-yl)-N-(6-methoxy-5-methylpyridin-3-yl)cyclohexane-1-carboxamide] |
